Columns and labels:
D(2) dopamine receptor = D(2) dopamine receptor (Homo sapiens, UniProt P14416); experiment: Displacement of [3H]-(R)-(+)7-OH-DPAT from human dopamine D2 receptor expressed in HEK293 cell membranes incubated for 90 mins by microbeta scintillation counting analysis
D(3) dopamine receptor = D(3) dopamine receptor (Homo sapiens, UniProt P35462); experiment: Displacement of [3H]-(R)-(+)7-OH-DPAT from human dopamine D3 receptor expressed in HEK293 cell membranes incubated for 90 mins by microbeta scintillation counting analysis
D(3) dopamine receptor, sequence (P35462 whole entry): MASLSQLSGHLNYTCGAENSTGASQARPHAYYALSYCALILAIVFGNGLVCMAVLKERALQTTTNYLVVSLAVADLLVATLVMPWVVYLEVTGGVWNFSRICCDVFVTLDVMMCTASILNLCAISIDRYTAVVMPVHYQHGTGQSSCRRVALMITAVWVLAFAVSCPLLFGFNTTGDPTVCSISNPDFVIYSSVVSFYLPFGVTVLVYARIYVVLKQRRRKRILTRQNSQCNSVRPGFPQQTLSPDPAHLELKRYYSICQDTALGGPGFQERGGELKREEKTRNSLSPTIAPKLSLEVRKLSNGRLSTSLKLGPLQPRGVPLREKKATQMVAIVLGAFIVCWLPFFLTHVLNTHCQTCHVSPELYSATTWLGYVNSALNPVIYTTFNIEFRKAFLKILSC

D(2) dopamine receptor, sequence (P14416 whole entry): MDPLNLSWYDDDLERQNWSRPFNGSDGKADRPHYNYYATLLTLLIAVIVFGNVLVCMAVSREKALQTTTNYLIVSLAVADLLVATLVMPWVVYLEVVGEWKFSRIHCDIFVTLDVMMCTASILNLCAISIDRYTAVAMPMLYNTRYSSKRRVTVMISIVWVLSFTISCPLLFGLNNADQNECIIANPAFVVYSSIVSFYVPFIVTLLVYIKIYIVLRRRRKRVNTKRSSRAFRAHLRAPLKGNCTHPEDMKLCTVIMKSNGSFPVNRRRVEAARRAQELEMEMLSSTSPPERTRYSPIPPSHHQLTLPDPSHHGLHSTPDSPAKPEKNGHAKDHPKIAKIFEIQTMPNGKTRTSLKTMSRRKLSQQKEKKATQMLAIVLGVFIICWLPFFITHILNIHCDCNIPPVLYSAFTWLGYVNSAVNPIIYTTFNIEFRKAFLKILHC

Row | Compound | Ki (D(2) dopamine receptor) | Ki (D(3) dopamine receptor)
1 | CN(CC[C@@H]1CC[C@@H](CNC(=O)c2cc3ccccc3[nH]2)C1)[C@@H]1Cc2cccc3[nH]c(=O)n(c23)C1 | 4.6 nM | 77 nM
2 | CN(CC[C@@H]1CC[C@H](CNC(=O)c2cc3ccccc3[nH]2)C1)[C@@H]1Cc2cccc3[nH]c(=O)n(c23)C1 | 2 nM | 20 nM
